Laboratory results as given in patent publication EP3060679B1, “METHOD AND KIT FOR DETERMINING WHETHER A SUBJECT SHOWS AN IMMUNE RESPONSE” (BioNTech Diagnostics GmbH, priority 2013, dated 2015).
Where two headings read alike, the source gives them in different places.

Assays:
patient's PBMCs = conditions: 6 weeks after vaccination vs before treatment
Procedure: The above described method is used for monitoring an immune response in 2 melanoma patients that were treated by an immunotherapy based on a peptide vaccine consisting of the HLA-B^∗0702-restricted T cell epitope […] (aa97-111) (SEQ ID NO: 40) of the tumor-associated antigen NY-ESO 1. In order to evaluate whether or not patients would benefit from a corresponding peptide vaccination therapy, HLA genotyping is done to test for HLA-B^∗0702 and tumor biopsies are examined for high NY-ESO 1 expression.
(§1) Before the vaccination therapy is started, the method described herein above is applied to establish HLA- and TCR-specific gene expression profiles of the patient's PBMCs. Furthermore the tumor size/mass is determined by CT scan. During therapy, the patients received 1 mg of the HLA-B^∗0702-restricted peptide […] every 2 weeks for 6 doses.
(§2) In addition HLA-expression profiles are established from tumor biopsies that are taken from the patients 12 weeks after the last vaccination.

HLA-B∗0702 = tested on: HLA-B∗0702
From the text: as §2
For further investigation new biopsies of the tumors of both patients are taken for analysis of tumor antigen expression and the establishment of a HLA expression profile using the method of the present invention.

tumor = tested on: tumor
Procedure: as §1, §2

ATPMEAELARRSLAQ was tested, and the “increased expression of the TCR-β sequence V4.1 D2 J2.1 C2” value (patient's PBMCs; patient 1, PBMCs) was 9.6 fold, the “increased expression of the TCR-α sequence V1.1 J23 C” value (patient's PBMCs; patient 1, PBMCs, 1 mg peptide every 2 weeks for 6 doses) was 10.3 fold and the “increased expression of the TCR-α sequence V1.1 J23 C” value (patient's PBMCs; patient 2, PBMCs) was 9.3 fold. For the same sequence, the “increased expression of the TCR-β sequence V4.1 D2 J2.1 C2” value (patient's PBMCs; patient 2, PBMCs) was 10.6 fold, the “HLA expression profile of tumor cells” value (HLA-B∗0702; patient 1, tumor biopsy 12 weeks after the last vaccination) was “normal HLA expression profile” and the “expression of HLA-B∗0702 in tumor cells” value (HLA-B∗0702; patient 2, tumor biopsy 12 weeks after the last vaccination) was “completely lost”. For the same sequence, the “expression of isotypes of HLA class I and II” value (HLA-B∗0702; patients' PBMCs, all time points) was “expressed at normal levels”, the “tumor mass in the CT scan” value (tumor; both patients, along with the T cell response seen 6 weeks after vaccination) was “loss of the tumor mass” and the “tumor in CT scan” value (tumor; patient 1, 12 weeks after vaccination) was “continuous tumor regression”. For the same sequence, the “tumor in CT scan” value (tumor; patient 2, 12 weeks after vaccination) was “growing again”.
